Assay results from article PMC7171677 (ACS infectious diseases, 2019).
In brackets after ≈: the same amount, converted by molar mass. Entries after “also recorded” stand apart in the source; their conditions may differ. Read-outs that look alike come from different tables or passages of the source.

What was measured:
[1] = test system: PfENT1-expressing fui1Δ yeast; experiment: 5-FUrd inhibition of PfENT1-expressing fui1Δ yeast growth; format: cell-based; conditions: Saccharomyces cerevisiae, read-out: IC50 for inhibition of yeast growth
PfENT1 [2] = molecular target: T1, PfENT1 (Plasmodium falciparum, UniProt Q8IDM6); experiment: Yeast Kill Assay; format: cell-based
T1 sequence (Q8IDM6 1-422): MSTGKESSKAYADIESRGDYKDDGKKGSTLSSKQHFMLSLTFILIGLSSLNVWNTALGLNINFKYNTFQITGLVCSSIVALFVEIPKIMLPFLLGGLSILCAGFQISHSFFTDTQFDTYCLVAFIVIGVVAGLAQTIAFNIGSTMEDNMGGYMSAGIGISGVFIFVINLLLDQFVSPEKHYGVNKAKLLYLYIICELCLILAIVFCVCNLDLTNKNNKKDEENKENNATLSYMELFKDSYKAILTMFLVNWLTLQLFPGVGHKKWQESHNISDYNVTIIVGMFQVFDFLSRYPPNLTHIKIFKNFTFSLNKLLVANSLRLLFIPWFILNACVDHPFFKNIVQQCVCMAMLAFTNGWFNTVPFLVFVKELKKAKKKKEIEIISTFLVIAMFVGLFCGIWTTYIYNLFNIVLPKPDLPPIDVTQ

PfENT1 [3] = molecular target: T1, PfENT1; experiment: Yeast Kill Assay; format: cell-based; remark: listed apart in the source
PfENT1 [4] = molecular target: T1, PfENT1; experiment: [3H]adenosine uptake into PfENT1-expressing yeast; format: cell-based
PvENT1 = PvENT1 (Plasmodium vivax, UniProt A5K8B0); experiment: [3H]adenosine uptake into PvENT1-expressing yeast; format: cell-based
Chain of PvENT1 (A5K8B0 whole entry): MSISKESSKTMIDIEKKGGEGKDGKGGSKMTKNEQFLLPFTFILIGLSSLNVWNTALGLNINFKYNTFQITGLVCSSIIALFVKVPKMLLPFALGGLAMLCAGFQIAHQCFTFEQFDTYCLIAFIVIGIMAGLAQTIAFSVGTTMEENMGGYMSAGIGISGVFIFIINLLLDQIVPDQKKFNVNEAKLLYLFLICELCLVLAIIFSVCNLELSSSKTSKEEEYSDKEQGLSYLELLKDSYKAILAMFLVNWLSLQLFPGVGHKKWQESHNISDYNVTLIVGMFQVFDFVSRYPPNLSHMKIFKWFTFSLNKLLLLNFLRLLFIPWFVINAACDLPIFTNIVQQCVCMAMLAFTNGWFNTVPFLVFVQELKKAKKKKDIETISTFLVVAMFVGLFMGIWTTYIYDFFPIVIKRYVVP

PbENT1 = PbENT1 (Plasmodium berghei, UniProt A0A509AYF4); experiment: [3H]adenosine uptake into PbENT1-expressing yeast; format: cell-based
Chain of PbENT1 (A0A509AYF4 whole entry): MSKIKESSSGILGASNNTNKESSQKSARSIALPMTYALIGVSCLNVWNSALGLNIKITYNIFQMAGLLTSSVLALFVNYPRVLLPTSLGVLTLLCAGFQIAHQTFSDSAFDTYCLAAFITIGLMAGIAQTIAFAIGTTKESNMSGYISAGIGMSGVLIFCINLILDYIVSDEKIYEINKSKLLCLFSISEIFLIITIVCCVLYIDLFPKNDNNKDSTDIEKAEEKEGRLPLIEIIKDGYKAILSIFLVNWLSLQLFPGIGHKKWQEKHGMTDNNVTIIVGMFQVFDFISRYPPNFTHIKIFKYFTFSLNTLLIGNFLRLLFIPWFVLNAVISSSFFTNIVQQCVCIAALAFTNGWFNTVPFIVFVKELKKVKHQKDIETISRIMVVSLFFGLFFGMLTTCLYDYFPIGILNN

[5] = test system: 3D7 strain P. falciparum parasites; experiment: P. falciparum parasite proliferation, 3D7 strain; format: cell-based; conditions: Plasmodium falciparum, 3D7, 48 h, read-out: 3D7 parasite proliferation IC50
[6] = test system: PfENT1-KO (pfent1Δ) parasites in the Dd2 background; experiment: P. falciparum parasite proliferation, PfENT1-knockout; format: cell-based, Plasmodium falciparum; conditions: for IC50: Plasmodium falciparum, DD2, read-out: PfENT1-KO parasite proliferation IC50
[7] = test system: Dd2 strain P. falciparum parasites; experiment: P. falciparum parasite proliferation, Dd2 strain; format: cell-based, Plasmodium falciparum
[8] = test system: HB3 strain P. falciparum parasites; experiment: P. falciparum parasite proliferation, HB3 strain; format: cell-based; conditions: Plasmodium falciparum, HB3, read-out: HB3 parasite proliferation IC50
[9] = test system: 7G8 strain P. falciparum parasites; experiment: P. falciparum parasite proliferation, 7G8 strain; format: cell-based; conditions: Plasmodium falciparum, 7G8, read-out: 7G8 parasite proliferation IC50
hENT1 = molecular target: T2, hENT1 (Homo sapiens, UniProt Q99808); experiment: [3H]adenosine uptake into human RBC; format: cell-based; conditions: for hENT1 [3H]adenosine uptake into RBC IC50: mean ± SD, NE = no effect at 100 μM
T2 sequence (Q99808 1-456): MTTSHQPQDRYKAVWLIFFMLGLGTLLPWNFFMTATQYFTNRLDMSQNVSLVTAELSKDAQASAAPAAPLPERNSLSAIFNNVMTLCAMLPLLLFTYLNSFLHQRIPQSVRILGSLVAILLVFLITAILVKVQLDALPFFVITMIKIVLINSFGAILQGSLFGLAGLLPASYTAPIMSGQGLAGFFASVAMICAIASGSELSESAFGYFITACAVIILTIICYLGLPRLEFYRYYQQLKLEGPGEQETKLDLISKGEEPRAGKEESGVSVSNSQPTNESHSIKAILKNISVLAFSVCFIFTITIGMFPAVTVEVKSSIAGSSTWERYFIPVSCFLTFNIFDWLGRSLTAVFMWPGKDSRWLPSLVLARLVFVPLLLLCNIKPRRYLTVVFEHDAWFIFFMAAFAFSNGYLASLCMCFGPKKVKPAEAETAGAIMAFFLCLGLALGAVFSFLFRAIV

hFNT = molecular target: T3, hFNT (Homo sapiens, UniProt Q8NBI5); experiment: [3H]hypoxanthine uptake into human RBC; format: cell-based; conditions: mean ± SD; 15 minutes; NE = no effect at 100 μM
T3 sequence (Q8NBI5 1-491): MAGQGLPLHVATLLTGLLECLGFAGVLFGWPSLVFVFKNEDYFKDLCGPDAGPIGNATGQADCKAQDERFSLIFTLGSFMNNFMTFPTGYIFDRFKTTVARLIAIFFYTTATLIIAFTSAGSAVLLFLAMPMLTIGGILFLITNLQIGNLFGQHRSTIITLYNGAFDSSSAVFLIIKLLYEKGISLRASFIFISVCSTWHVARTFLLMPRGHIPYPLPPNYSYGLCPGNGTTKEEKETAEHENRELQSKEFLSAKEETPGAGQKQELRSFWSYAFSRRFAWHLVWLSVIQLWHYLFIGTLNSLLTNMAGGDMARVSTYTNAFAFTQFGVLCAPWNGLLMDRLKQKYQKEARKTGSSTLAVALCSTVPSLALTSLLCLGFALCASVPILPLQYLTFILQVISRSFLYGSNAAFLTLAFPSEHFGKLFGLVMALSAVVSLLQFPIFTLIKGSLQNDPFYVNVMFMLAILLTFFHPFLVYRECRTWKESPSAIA

in vitro = format: cell-based; conditions: human
Kinetic solubility = format: physicochemical; conditions: phosphate buffered saline, pH 7.4, aqueous buffer, kinetic from dmso stock
Property Forecast Index = format: physicochemical; conditions: chromatographic log D7.4 + aromatic ring count
human serum albumin = human serum albumin (Homo sapiens, UniProt P02768); experiment: HSA column binding; format: in vitro ADME
Chain of human serum albumin (P02768 25-609): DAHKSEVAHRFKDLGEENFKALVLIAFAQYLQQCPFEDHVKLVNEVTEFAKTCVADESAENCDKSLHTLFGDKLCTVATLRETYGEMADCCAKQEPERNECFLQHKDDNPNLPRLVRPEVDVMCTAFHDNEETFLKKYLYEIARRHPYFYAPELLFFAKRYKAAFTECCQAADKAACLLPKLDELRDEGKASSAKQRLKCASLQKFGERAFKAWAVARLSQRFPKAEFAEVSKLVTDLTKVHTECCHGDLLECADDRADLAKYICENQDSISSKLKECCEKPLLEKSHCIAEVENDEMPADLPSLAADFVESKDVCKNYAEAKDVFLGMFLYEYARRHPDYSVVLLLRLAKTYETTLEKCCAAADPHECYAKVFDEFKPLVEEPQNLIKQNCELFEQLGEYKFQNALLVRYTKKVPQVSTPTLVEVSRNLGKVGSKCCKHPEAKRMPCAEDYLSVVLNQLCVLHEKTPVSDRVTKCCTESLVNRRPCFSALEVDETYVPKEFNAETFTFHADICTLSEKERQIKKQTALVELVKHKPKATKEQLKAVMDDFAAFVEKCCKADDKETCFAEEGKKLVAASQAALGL

PfENT1 [10] = molecular target: T1, PfENT1; experiment: Yeast HTS Growth Assay
[11] = Plasmodium falciparum, DD2, read-out: Dd2 parasite proliferation IC50, mean ± SD

O=c1[nH]c(=O)n([C@@H]2O[C@H](CO)[C@@H](O)[C@H]2O)cc1F [5-FUrd, 5-fluorouridine] showed an IC50 [1] of 4800 nM.

Compound Cc1oc(-c2ccccc2)nc1C(=O)NCCN1CCCCCC1=O [GSK-4, 5-Methyl-N-[2-(2-oxo-1-azepanyl)ethyl]-2-phenyl-1,3-oxazole-4-carboxamide] has an IC50 (PfENT1 [2]) of 1260 nM, an IC50 (PfENT1 [3]) of 430 ± 300 nM and an IC50 (PfENT1 [4]) of 20 ± 10 nM. It also gave an IC50 (PvENT1) of 20 ± 40 nM, an IC50 (PbENT1) of 10 ± 10 nM and an IC50 [5] of 6200 ± 1900 nM. The IC50 [6] was 29400 ± 500 nM, the IC50 [7, 11] was 1900 ± 400 nM and the IC50 [8] was 6160 ± 2500 nM. For the same compound, the IC50 [9] was 8440 ± 2400 nM, the IC50 (hENT1) was 51000 ± 27700 nM and the “hFNT [3H]hypoxanthine uptake into RBC IC50” value (shortened to “hFNT”) (hFNT) was “did not inhibit”. It also gave an IC50 at 48 h (in vitro) greater than 100000 nM, a solubility at 1 h (Kinetic solubility) of 156 µg/mL (≈ 457 µM) and a PFI (Property Forecast Index) of 6.5. For the same compound, the “HSA Column binding” value (human serum albumin) was 92% and the EC50 (PfENT1 [10]) was 3980 nM.

Compound CCc1nnc(NC(=O)c2nc(-c3ccc(Cl)cc3)n3c2CCCCC3)s1 [GSK-2, 3-(4-Chlorophenyl)-N-(5-ethyl-1,3,4-thiadiazol-2-yl)-6,7,8,9-tetrahydro-5H-imidazo[1,5-a]azepine-1-carboxamide] has an IC50 (PfENT1 [2]) of less than 80 nM, an IC50 (PfENT1 [3]) of 110 ± 40 nM and an IC50 (PfENT1 [4]) of 30 ± 30 nM. The IC50 (PvENT1) was 40 ± 30 nM, the IC50 (PbENT1) was 50 ± 30 nM and the IC50 [5] was 2250 ± 400 nM. It also gave an IC50 [6] of 2660 nM, an IC50 [7, 11] of 1890 ± 200 nM and an IC50 [8] of 3550 ± 700 nM. For the same compound, the IC50 [9] was 4520 ± 100 nM, the IC50 (hENT1) was 24500 ± 24800 nM and the “hFNT” value (hFNT) was “did not inhibit”. It also gave an IC50 at 48 h (in vitro) greater than 100000 nM, a solubility at 1 h (Kinetic solubility) of 2.5 µg/mL (≈ 6.22 µM) and a PFI (Property Forecast Index) of 9.6. The “HSA Column binding” value (human serum albumin) was 97% and the EC50 (PfENT1 [10]) was 250 nM.

CC(=O)Nc1nc(-c2c(F)cccc2F)cs1 [GSK-5, N-[4-(2,6-Difluorophenyl)-1,3-thiazol-2-yl]acetamide] gave an IC50 (PfENT1 [2]) of 6310 nM, an IC50 (PfENT1 [3]) of 4000 ± 1300 nM and an IC50 (PfENT1 [4]) of 2590 ± 2360 nM. For the same compound, the IC50 (PvENT1) was 2710 ± 250 nM, the IC50 (PbENT1) was 3090 ± 2700 nM and the IC50 [5] was 8720 ± 1600 nM. The IC50 [6] was 10800 nM, the IC50 [7, 11] was 10600 ± 2100 nM and the IC50 [8] was 9090 ± 4500 nM. The IC50 [9] was 16100 ± 5500 nM, the “hENT1 [3H]adenosine uptake into RBC IC50” value (hENT1) was “did not inhibit; also recorded: Low activity/NE^d” and the IC50 at 48 h (in vitro) was greater than 100000 nM. For the same compound, the solubility at 1 h (Kinetic solubility) was 16 µg/mL (≈ 62.9 µM), the PFI (Property Forecast Index) was 5.7 and the “HSA Column binding” value (human serum albumin) was 90%. For the same compound, the EC50 (PfENT1 [10]) was 63100 nM.

O=C(Nc1ccccc1C(=O)NC1CC1)c1cccc(N2CCCC2=O)c1 [GSK-3, N-Cyclopropyl-2-{[3-(2-oxo-1-pyrrolidinyl)benzoyl]amino}benzamide] showed an IC50 (PfENT1 [2]) of 630 nM, an IC50 (PfENT1 [3]) of 460 ± 300 nM and an IC50 (PfENT1 [4]) of 30 ± 10 nM. It also gave an IC50 (PvENT1) of 40 ± 10 nM, an IC50 (PbENT1) of 70 ± 40 nM and an IC50 [5] of 2380 ± 500 nM. For the same compound, the “PfENT1-KO parasite proliferation IC50” value ([6]; 75 μM hypoxanthine, NE = no effect at 74.2 μM, N=1 for GSK-2 and GSK-5) was “Low activity/NE^e”, the IC50 [7, 11] was 590 ± 50 nM and the IC50 [8] was 2210 ± 600 nM. For the same compound, the IC50 [9] was 6080 ± 1300 nM, the IC50 (hENT1) was 72400 ± 19300 nM and the IC50 at 48 h (in vitro) was greater than 100000 nM. The solubility at 1 h (Kinetic solubility) was 112 µg/mL (≈ 308 µM), the PFI (Property Forecast Index) was 6 and the “HSA Column binding” value (human serum albumin) was 84%. The EC50 (PfENT1 [10]) was 2510 nM.

COc1ccc(-c2nc(C(=O)Nc3cccc(-c4nnc5n4CCCCC5)c3)cs2)cc1OC [GSK-1, 2-(3,4-Dimethoxyphenyl)-N-[3-(6,7,8,9-tetrahydro-5H-[1,2,4]triazolo[4,3-a]azepin-3-yl)phenyl]-1,3-thiazole-4-carboxamide] gave an IC50 (PfENT1 [2]) of 630 nM, an IC50 (PfENT1 [3]) of 540 ± 200 nM and an IC50 (PfENT1 [4]) of 120 ± 80 nM. It also gave an IC50 (PvENT1) of 140 ± 70 nM, an IC50 (PbENT1) of 130 ± 50 nM and an IC50 [5] of 780 ± 200 nM. It also gave an IC50 [6] of 17000 ± 4800 nM, an IC50 [7, 11] of 110 ± 9 nM and an IC50 [8] of 340 ± 100 nM. For the same compound, the IC50 [9] was 480 ± 200 nM, the IC50 (hENT1) was 990 ± 810 nM and the IC50 at 48 h (in vitro) was greater than 100000 nM. The solubility at 1 h (Kinetic solubility) was 10.5 µg/mL (≈ 22.1 µM), the PFI (Property Forecast Index) was 8.8 and the “HSA Column binding” value (human serum albumin) was 94%. The EC50 (PfENT1 [10]) was 3160 nM.

Compound CCn1cnnc1C1CCN(C(=O)c2cn3ccc(C)cc3n2)CC1 [GSK-6, [4-(4-Ethyl-4H-1,2,4-triazol-3-yl)-1-piperidinyl](7-methylimidazo[1,2-a]pyridin-2-yl)methanone] has an IC50 (PfENT1 [2]) of 1260 nM, an IC50 (PfENT1 [3]) of 1200 ± 1100 nM and an IC50 (PfENT1 [4]) of 3980 ± 1350 nM. The “PvENT1 [3H]Ado uptake IC50” value (PvENT1; mean ± SD, yeast expressing P. vivax ENT1, NE = no effect at 100 μM) was “did not inhibit”, the “PbENT1 [3H]Ado uptake IC50” value (PbENT1; mean ± SD, yeast expressing P. berghei ENT1, NE = no effect at 100 μM) was “did not inhibit” and the IC50 [5] was 10300 ± 4700 nM. It also gave an IC50 [6] greater than 100000 nM, an IC50 [7, 11] of 1890 nM and an IC50 ([7]; read-out: Dd2 parasite proliferation IC50, mean ± SD) of 3300 ± 1700 nM. The IC50 [8] was 19700 ± 4100 nM, the IC50 [9] was 19000 ± 3500 nM and the “hENT1 [3H]adenosine uptake into RBC IC50” value (hENT1) was “did not inhibit”. The “hFNT” value (hFNT) was “did not inhibit”, the IC50 at 48 h (in vitro) was greater than 100000 nM and the solubility at 1 h (Kinetic solubility) was greater than 133 µg/mL. For the same compound, the PFI (Property Forecast Index) was 4.2, the “HSA Column binding” value (human serum albumin) was 48% and the EC50 (PfENT1 [10]) was 10000 nM.
